# What was measured:
# sEH [1] = target: T1, sEH (Homo sapiens, UniProt P34913); assay: Inhibition of recombinant human sEH; format: biochemical
# T1 sequence (P34913 1-555): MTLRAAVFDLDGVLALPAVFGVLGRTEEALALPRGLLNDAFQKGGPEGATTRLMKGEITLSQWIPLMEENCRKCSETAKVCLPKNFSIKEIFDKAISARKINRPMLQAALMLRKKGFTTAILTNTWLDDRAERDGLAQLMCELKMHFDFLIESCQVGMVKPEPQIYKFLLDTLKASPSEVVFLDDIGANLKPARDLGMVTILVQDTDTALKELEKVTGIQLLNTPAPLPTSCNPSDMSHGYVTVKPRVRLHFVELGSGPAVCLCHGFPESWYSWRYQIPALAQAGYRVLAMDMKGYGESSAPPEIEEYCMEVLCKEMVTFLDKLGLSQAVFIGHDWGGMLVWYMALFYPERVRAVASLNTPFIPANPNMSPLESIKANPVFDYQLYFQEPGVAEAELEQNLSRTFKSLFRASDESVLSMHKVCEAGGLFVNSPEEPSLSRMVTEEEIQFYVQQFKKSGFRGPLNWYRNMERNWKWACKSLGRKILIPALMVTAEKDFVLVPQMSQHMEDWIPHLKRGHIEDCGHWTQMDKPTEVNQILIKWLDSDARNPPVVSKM
# recombinant murine sEH = target: T2, recombinant murine sEH (Mus musculus, UniProt P34914); assay: Inhibition of recombinant murine sEH; format: biochemical
# T2 sequence (P34914 1-554): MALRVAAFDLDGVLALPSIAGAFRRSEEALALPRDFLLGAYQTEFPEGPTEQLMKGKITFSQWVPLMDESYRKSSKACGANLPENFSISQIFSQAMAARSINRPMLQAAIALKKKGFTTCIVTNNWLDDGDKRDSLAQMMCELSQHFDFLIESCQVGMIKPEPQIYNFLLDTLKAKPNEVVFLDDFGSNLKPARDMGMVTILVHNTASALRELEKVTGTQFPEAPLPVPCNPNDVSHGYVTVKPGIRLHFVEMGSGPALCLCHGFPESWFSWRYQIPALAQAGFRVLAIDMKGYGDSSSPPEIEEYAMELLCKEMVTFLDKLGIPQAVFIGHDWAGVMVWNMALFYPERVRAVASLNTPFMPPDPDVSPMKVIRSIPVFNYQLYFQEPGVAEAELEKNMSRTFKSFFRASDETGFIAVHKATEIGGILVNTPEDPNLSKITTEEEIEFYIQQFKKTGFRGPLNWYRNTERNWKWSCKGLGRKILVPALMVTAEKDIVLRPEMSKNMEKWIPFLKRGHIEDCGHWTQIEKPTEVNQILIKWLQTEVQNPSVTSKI
# C57BL/6 mice [2] = assay: Niacin-induced flushing: laser Doppler ear blood flow in anesthetized mice; format: in vivo, mouse; settings: for peak ear tissue perfusion after niacin (composite, FIG. 9): i.p. 30 minutes before niacin 30 mg/kg, TPAU 0.01-1 mg/kg, others 4 mg/kg
# Description: For the experiments, mice were anesthetized using Nembutal (50 mg/kg) given by intraperitoneal (I.P.) injection. […]
# Laser Doppler ear blood flow: The change in ear flow was measured using a laser doppler flowmeter (BLF 21, on loan from Transonic Systems, Inc., Ithaca, N.Y.). […] The laser doppler probe was fitted with a sleeve of 2 mm length plastic tubing and attached to a micromanipulator to standardize the depth of the tissue being measured. Blood flow was measured at 30 second intervals before and during exposure to compounds. Baseline blood flow was established by the average of measurements over 5 min prior to injection of drug or vehicle. Data were analyzed as a fraction of baseline.
# Mice were anesthetized with Nembutal™ (50 mg/kg) and ear cutaneous perfusion was measured as explained above. Animals were then injected with a niacin solution (30 mg/kg, in physiological saline) and response (% tissue perfusion) after 3 minutes measured.
# mouse ear = assay: Capsaicin applied to the mouse ear: tissue perfusion; format: in vivo
# Source text: Tachyphylaxis to the flushing effect of niacin is well known, although the mechanism has not been elucidated. […] Tachyphylaxis to the vasodilatory effect of capsaicin is likely mediated by repetitive activation of transient receptor potential channels, in particular TRPV1, with resultant desensitization and internalization. See, Fan et al., J Biol Chem (2009) 284:27884-91; Myers, et al., Neuron (2007) 54:847-50. […] Subsequently, mice were exposed to capsaicin daily for 3 days (treated topically, 4 times per day), resulting in abolition of the acute vasodilatory response (i.e. tachyphylaxis to capsaicin). […] Although the exact sequence of events following niacin exposure is not clear it seems that niacin activates a number of targets simultaneously.
# COX-2 / COX-1 = settings: cited from earlier work
# C57BL/6 mice [3] = assay: PGD2-induced vasodilation/flushing, ear perfusion in mice; format: in vivo, mouse
# Description: Mouse Model: C57BL/6 mice were obtained from Charles River Laboratories (location). sEHi knockout mice were generated at UC Davis using the C57BL/6 background [EnayetAllah, et al., J Biol. Chem. (2008) 283(52):36592-8]. For the experiments, mice were anesthetized using Nembutal (50 mg/kg) given by intraperitoneal (I.P.) injection. […]
# Laser Doppler ear blood flow: The change in ear flow was measured using a laser doppler flowmeter (BLF 21, on loan from Transonic Systems, Inc., Ithaca, N.Y.). As described by Cheng et al [Proc Natl Acad Sci (2006) 103(17):6682-7] the flow probe was placed against the ventral aspect of the right ear of the anesthetized mouse. The laser doppler probe was fitted with a sleeve of 2 mm length plastic tubing and attached to a micromanipulator to standardize the depth of the tissue being measured. Blood flow was measured at 30 second intervals before and during exposure to compounds. Baseline blood flow was established by the average of measurements over 5 min prior to injection of drug or vehicle. Data were analyzed as a fraction of baseline.
# [4] = Metabolic stability, method not given; format: in vitro ADME
# Source text: (§1) (Both the 1- and the 2-adamantyl ureas have been tested and have about the same high activity as an inhibitor of sEH.) Thus, isomers of adamantyl dodecyl urea are preferred inhibitors. It is further expected that N,N′-dodecyl-cyclohexyl urea (DCU), and other inhibitors of sEH, and particularly dodecanoic acid ester derivatives of urea, are suitable for use in the methods of the invention.
# sEH [5] = target: T1, sEH; assay: sEH inhibition, assay not specified; format: biochemical
# Source text: as §1
# [6] = 325 mg of aspirin, Dunn et al 1995; cited from earlier work
# C57BL/6 mice [7] = assay: Eicosanoid analysis by LC-MS in ear tissue of mice given niacin +/- sEHi; format: in vivo, mouse; settings: for products of the 5-lipoxygenase pathway in ear tissue: niacin 30 mg/kg subcutaneously, TPAU 3 mg/kg pre-treatment, FIG. 10
# Description: Samples were spiked with a suite of odd chain length analogs (surrogates) then solvent extracted and partially purified by passing through a solid phase (SP) extraction column using Oasis HLB cartridges. The loaded column was washed with 2 mL 2.5 mM H2PO4+10% methanol and dried under vacuum. Target analytes were eluted with 2 mL of ethyl acetate. The collected extracts were evaporated to dryness under nitrogen, re-dissolved in a final volume of 100 μL with methanol containing deuterated isomers of internal standards including prostaglandins, thromboxanes, epoxides, diols, of arachidonic acid, which allows accurate surrogate recovery calculations and stored at −20° C. until analysis. A 10-20 μL aliquot of each sample was separated by reversed phase HPLC chromatography on a 150 mm×2 mm I.D. 5 μm particle size C18 column using a gradient of water-0.1% acetic acid and 89:11 acetonitrile/methanol (v/v)-0.1% acetic acid. […] The system was calibrated with a minimum of five calibration solutions containing analytical targets at concentrations ranging from 1 to 1000 nM. The analysis of each sample was repeated three times. Calibration check solutions were analyzed at a minimum frequency of 10 hours to ensure stability of the analytical calibration throughout a given analysis.
# As the flushing effect of niacin is essentially local rather than systemic, the effect of niacin +/−sEHi on ear tissue prostaglandins were also examined by LC-MS.
# Products of the 5-lipoxygenase pathway are generally considered pro-inflammatory.
# C57BL/6 mice [8] = assay: Eicosanoid analysis by LC-MS/MS in plasma/serum of mice given niacin +/- sEHi; format: in vivo, mouse
# [9] = niacin 30 mg/kg, wild type mice, FIG. 6
smiles,measurement,setting,value
COc1cc(CNC(=O)CCCC/C=C/C(C)C)ccc1O [capsaicin],IC50,sEH [1],1500 nM
same,IC50,recombinant murine sEH,1500 nM
same,vasodilatory response to niacin after capsaicin tachyphylaxis,"C57BL/6 mice [2]; capsaicin topically 4 times per day for 3 days, FIG. 11",blunted vasodilatory response
same,flushing response to niacin after capsaicin tachyphylaxis plus acute topical capsaicin,C57BL/6 mice [2]; repeated capsaicin then acute topical capsaicin prior to niacin injection,abolished
same,ear tissue perfusion after topical capsaicin,mouse ear,time-dependent increase in tissue perfusion
COc1ccc2c(c1)c(CC(=O)O)c(C)n2C(=O)c1ccc(Cl)cc1 [indomethacin],COX-2 (IC50)/COX-1 (IC50) ratio,COX-2 / COX-1,33
CC(C)(C)c1ccc(/C=C/C(=O)Nc2ccc3c(c2)OCCO3)cc1 [AMG9810],flushing response to PGD2,"C57BL/6 mice [3]; AMG9810 10 mg/kg IP, FIG. 12",blunted the biologic response to PGD2
same,flushing response to niacin,"C57BL/6 mice [2]; AMG9810 10 mg/kg IP, in the animal tested",abolished the flushing response to niacin
CNC(=O)c1cc(Oc2ccc(NC(=O)Nc3ccc(Cl)c(C(F)(F)F)c3)cc2)ccn1 [sorafenib],"peak ear tissue perfusion after niacin (composite, FIG. 9)",C57BL/6 mice [2],significantly reduced peak ear tissue perfusion
"CCCCCCCCCCCCNC(=O)NC12CC3CC(CC(C3)C1)C2 [ADU, N-Adamantyl-N′-dodecyl urea]",metabolic stability,[4],metabolically stable
same,activity on sEH,sEH [5],particularly high activity on sEH
CC(=O)Oc1ccccc1C(=O)O [aspirin],COX-2 (IC50)/COX-1 (IC50) ratio,COX-2 / COX-1,0.32
same,effectiveness against niacin flushing,[6],more effective than 165 mg of aspirin or 200 mg ibuprofen
same,"peak ear tissue perfusion after niacin (composite, FIG. 9)",C57BL/6 mice [2],significantly reduced peak ear tissue perfusion
"O=C(O)c1cccnc1 [niacin, pyridine-3-carboxylic acid]",ear tissue PGD2 level,"C57BL/6 mice [7]; LC-MS, unit not given",33214
same,products of the 5-lipoxygenase pathway in ear tissue,C57BL/6 mice [7],increased products of the 5-lipoxygenase pathway
same,increase of ear tissue PGD2,"C57BL/6 mice [7]; niacin vs control, P=0.09",21%
same,plasma levels of EETs (total EETs or ratio EETs/DHETs),C57BL/6 mice [8]; niacin 30 mg/kg subcutaneous alone,reduced plasma levels of EETs
same,PGE2 levels in serum,C57BL/6 mice [8]; niacin alone,without altering PGE2 levels
same,increase of PGD2 levels in serum,C57BL/6 mice [8]; niacin alone,approximately 100%
same,increase in ear perfusion,C57BL/6 mice [2]; [9],~400%
same,time of peak ear perfusion after injection,C57BL/6 mice [2]; [9],approximately 4 minutes
"O=C(NC1CCN(C(=O)C(F)(F)F)CC1)NC12CC3CC(CC(C3)C1)C2 [TPAU, N-(1-(2,2,2-trifluoroethanoyl)piperidin-4-yl)-N′-(adamant-1-yl)urea]",products of the 5-lipoxygenase pathway in ear tissue,C57BL/6 mice [7],limited or abrogated niacin-induced increases in products of the 5-lipoxygenase pathway
same,PGD2-induced increase in perfusion,"C57BL/6 mice [3]; TPAU pretreatment at a concentration sufficient to inhibit niacin-induced perfusion increase, FIG. 4",did not limit the increase in perfusion with administration of PGD2
same,PGD2 levels with niacin + sEHi,"C57BL/6 mice [8]; TPAU 3 mg/kg, FIG. 5",did not result in the expected reduction in PGD2
same,niacin-induced reduction of plasma EETs and ratio EETs/DHETs,"C57BL/6 mice [8]; sEHi TPAU 3 mg/kg, niacin 30 mg/kg, FIG. 1-3",counters this reduction in EETs
same,peak perfusion after niacin,"C57BL/6 mice [2]; TPAU 0.05 mg/kg to 1 mg/kg, FIG. 8",significant reduction in peak perfusion
same,flushing (% tissue perfusion 3 minutes after niacin),"C57BL/6 mice [2]; TPAU 0.01 to 1 mg/kg, 1 hour prior to niacin 30 mg/kg, n=4-6",dose-dependently reduced flushing
same,"peak ear tissue perfusion after niacin (composite, FIG. 9)",C57BL/6 mice [2],significantly reduced peak ear tissue perfusion
same,dose giving total inhibition of flushing,"C57BL/6 mice [2]; mice, niacin 30 mg/kg",0.3 mg/kg
same,Ki50 for inhibition of niacin-induced flushing,"C57BL/6 mice [2]; mice, niacin 30 mg/kg, TPAU pre-treatment",approximately 0.01 mg/kg
